Measurements: patent US11484608B2, “Non-invasive assessment of hepatic mitochondrial metabolism by positional isotopomer NMR tracer analysis (PINTA)” (YALE UNIVERSITY, priority 2017, dated 2022)

Columns and labels:
[1] = test system: hepatic glucose production, VPC and VCS (InsP3R-I signaling); assay: Acute 2 hr glucagon infusion in WT and liver-specific InsP3R-I KO mice; assay type: in vivo, mouse
Description: All protocols were approved by the Yale University Animal Care and Use Committee. Liver-specific InsP3R-I KO mice were generated as described (Feriod, et al. Hepatology Communications 1, 23-35, 2017) and in all experiments, littermates were studied at 10-12 weeks of age. They were fed standard chow (Teklad #2018) and housed on a 12 hr light/dark cycle in the Yale Animal Resources Center. To knock down ATGL in a liver-specific manner, an adeno-associated virus targeting ATGL (Vector BioLabs, 10^12 gc per mouse) was administered by retro-orbital injection four weeks prior to studies. Male mice were used for in vivo studies, while female mice were used for in vitro studies, unless otherwise specified. One week prior to in vivo studies, mice underwent surgery under isoflurane anesthesia to place a catheter in the jugular vein. Post-surgical recovery was confirmed by regaining the pre-surgical body weight prior to any in vivo studies. They were fasted overnight, unless otherwise stated, prior to in vivo studies. […] Mice were euthanized using IV pentobarbital at the conclusion of the terminal study.
In the rat studies, blood was collected from the jugular venous catheter. In both species, samples were immediately centrifuged (12,000 rpm) to separate plasma from red blood cells. PINTA analysis of hepatic mitochondrial fluxes was employed in both rats and mice (see Example 1). Briefly, mice were infused with a two-hour primed (5 min, 3×)-continuous infusion of [3-^13C] lactate (40 μmol kg^−1 min^−1) and [1,2,3,4,5,6,6-^2H7] glucose (0.1 mg kg^−1 min^−1). Rats were infused with lactate at the same rate, as well as [3-^3H] glucose (0.1 mCi kg^−1 min^−1). At the conclusion of the study, animals were euthanized with IV pentobarbital.
Total glucose turnover (i.e. hepatic glucose production) was measured by determining the specific activity of [^3H] glucose in plasma using a scintillation counter, and the VPC/VHGP ratio was calculated using the equation
[formula] and calculated absolute VCS by dividing VPC by VPC/VCS. The derivations of each equation are described in detail in Example 1. The possible contribution of [^13C] bicarbonate to label the TCA cycle was corrected for as follows. Liver [^13C] bicarbonate enrichment was measured by GC-MS (HP-1 column: 12 m×0.2 mm×0.33 μm film, isothermal: 110° C.). Liver tissue (˜[…]) was placed in a GC-MS vial, purged with N2 gas, and sealed. To each sample, a saturated aqueous solution of citric acid (50 μl) was injected into the vial through the cap. After ten minutes, CO2 was sampled from the head-space and ions with m/z 44 and 45 daltons were monitored using electron impact ionization.
Plasma glucose concentrations were measured using a YSI Glucose Analyzer. […] Plasma NEFA concentrations were measured using the Wako NEFA assay, while plasma glycerol and plasma and liver amino acid concentrations were measured by GC/MS. […] Protein concentrations were measured by Western blot, using antibodies from Santa Cruz (PC, PEPCK, CAMKII), Cell Signaling (ATGL, pCAMKIV, CAMKIV, pCRTC2, CRTC2, pACC, ACC, pAMPK, AMPK, pHSL, HSL, GAPDH, and β-actin), Novus Biologicals (pCAMKII), Abcam (pATGL), LSBio (pInsP3R-I), and BD Transduction Laboratories (InsP3R-II, InsP3R-III, PKCε).

[2] = test system: primary hepatocytes (cytosolic and mitochondrial calcium); assay: Ca2+ imaging in isolated hepatocytes; assay type: cell-based, mouse; conditions: isolated WT hepatocytes (not InsP3R-I KO); 100 nM glucagon or 50 nM vasopressin
Method: Primary hepatocytes were isolated by the Yale Liver Center from wild-type and InsP3R-I KO mice and plated on glass coverslips coated with Rat Collagen Type I. Cells were loaded with the ratiometric cytosolic Ca^2+ indicator dye, Fura-2 AM (Thermo Fisher Scientific), or the mitochondrial matrix-targeted Ca^2+ indicator, Rhod-2 AM (Thermo Fisher Scientific) according to manufacturer's instructions. Ca^2+ imaging experiments were performed in 4-(2-hydroxyethyl)-1-piperazine ethanesulfonic acid (HEPES)-buffered balanced salt solution (25 mM HEPES, 121 mM NaCl, 4.7 mM KCl, 1.2 mM MgSO4, 1.2 mM KPO4, 5 mM NaHCO3, 2.0 mM CaCl2, 10 mM Glucose, pH 7.4) with or without the PKA inhibitor H-89 (25 μM) two to five hr following initial plating. Coverslips were transferred to a custom-built perfusion chamber on the stage of an inverted microscope connected to a RedShirtImaging camera (Olympus Life Science, Waltham, Mass.). […] For cytoplasmic calcium readings, changes in fluorescence (F, λ=340) were normalized by the initial fluorescence (F0, λ=380) and were expressed as F/F0. […] Individual cell responses were normalized to their respective baseline Rhod-2 AM fluorescence values, and changes were expressed as Normalized Δ Fluorescence.

## glucagon
[1]; InsP3R-I-dependent, CAMKIV not
  hepatic CAMKII phosphorylation: stimulated
[1]; PINTA, acute glucagon infusion
  increases in rates of HGP: ~25%
[1]; WT livers
  increase in InsP3R-I phosphorylation: two-fold
[1]; WT mice
  increase in hepatic mitochondrial oxidation (VCS): five-fold
  plasma non-esterified fatty acid (NEFA) concentrations: reduced
[1]; WT mice in vivo, not InsP3R-I KO
  increase in hepatic ATGL S406 phosphorylation: three-fold
[1]; WT mice, acute glucagon infusion
  plasma glucose and insulin concentrations: modest increase
[1]; WT mice, not InsP3R-I KO
  increase in hepatic pyruvate dehydrogenase flux (VPDH): 7 fold
[1]; acute glucagon infusion
  hepatic malonyl-CoA content: independently of any changes
  increases in hepatic long-chain acyl-CoA and acetyl-CoA content: 35-60%
[1]; acute glucagon study
  VPK as percentage of hepatic VPC flux: 15-35%
[1]; both genotypes
  cAMP concentrations, protein kinase A activity, CRTC2 phosphorylation (liver): increased
  hormone-sensitive lipase (HSL) phosphorylation: increased
[1]; liver-specific InsP3R-I knockout mice
  hepatic mitochondrial oxidation: failed to exhibit any increases
[1]; mice infused with glucagon
  pyruvate kinase flux (VPK): without any difference
[2]
  mitochondrial and cytosolic calcium signaling: increases
